{
  "source": "patent US7071293B1",
  "about": "“Alpha helical peptides with broad spectrum antimicrobial activity that are insensitive to salt” (priority 1999, dated 2006)",
  "key": {"[1]": {"tested_on": "MRSA ATCC 33591", "conditions": "for MIC MRSA [NaCl] High / MIC MRSA [NaCl] Low: ATCC 33591, pH 7.4"}, "[2]": {"tested_on": "P. aeruginosa MR 3007", "conditions": "for MIC P. aeruginosa [NaCl] High / MIC P. aeruginosa [NaCl] Low: MR 3007, pH 7.4"}, "[3]": {"tested_on": "P. aeruginosa PA-01"}, "[4]": {"tested_on": "S. aureus 930918-3", "conditions": "for MIC S. aureus [NaCl] High / MIC S. aureus [NaCl] Low: 930918-3, pH 7.4"}, "[5]": {"tested_on": "P. aeruginosa PAO1", "conditions": "for EC50 P. aeruginosa PAO1 μg/ml ± sem: average ± sem"}, "[6]": {"tested_on": "E. coli ML-35p", "conditions": "Table 13; for MIC E. coli [NaCl] High: high salt underlay (10 mM sodium phosphate buffer +100 mM NaCl, pH 7.4); for MIC E. coli [NaCl] Low: low salt underlay (10 mM sodium phosphate buffer, pH 7.4)"}, "[7]": {"tested_on": "E. coli DH5α", "conditions": "for EC50: DH5α; for EC50 E. coli DH5α: ionic strength 25 mM, avg ± sem"}, "[8]": {"conditions": "ionic strength 25 mM, avg ± sem"}, "[9]": {"conditions": "ionic strength 175 mM, avg ± sem"}},
  "note": "Read-outs that look alike come from different tables or passages of the source. Ends that are not written are not given here.",
  "data": [
    {"molecule": "IRRIIRKIIHIIKK-NH2 [Peptide 13]", "values": [
      {"measurement": "MRSA ATCC 33591 MIC, 0 mM NaCl", "setting": "[1]; ATCC 33591", "value": "2.39 ± 0.07", "unit": "µg/mL"},
      {"measurement": "MRSA ATCC 33591 MIC, 175 mM NaCl", "setting": "[1]; ATCC 33591", "value": ">79.1", "unit": "µg/mL"},
      {"measurement": "P. aeruginosa MR-3007 MIC, 0 mM NaCl", "setting": "[2]; MR 3007", "value": "0.84 ± 0.06", "unit": "µg/mL"},
      {"measurement": "P. aeruginosa MR-3007 MIC, 175 mM NaCl", "setting": "[2]; MR 3007", "value": "19.7 ± 2.2", "unit": "µg/mL"},
      {"measurement": "P. aeruginosa PA-01 MIC, 0 mM NaCl", "setting": "[3]", "value": "1.03 ± 0.08", "unit": "µg/mL"},
      {"measurement": "P. aeruginosa PA-01 MIC, 175 mM NaCl", "setting": "[3]", "value": "7.45 ± 0.87", "unit": "µg/mL"},
      {"measurement": "S. aureus 930918-3 MIC, 0 mM NaCl", "setting": "[4]; 930918-3", "value": "1.03 ± 0.03", "unit": "µg/mL"},
      {"measurement": "S. aureus 930918-3 MIC, 175 mM NaCl", "setting": "[4]; 930918-3", "value": "5.93 ± 1.12", "unit": "µg/mL"}
    ]},
    {"molecule": "LRRIIRKIIHIIKK [SMAP29X-14B]", "values": [
      {"measurement": "EC50 P. aeruginosa PAO1", "setting": "[5]; [8]", "value": "0.55 ± 0.03", "unit": "µg/mL"},
      {"measurement": "EC50 P. aeruginosa PAO1", "setting": "[5]; [9]", "value": "5.55 ± 0.42", "unit": "µg/mL"}
    ]},
    {"molecule": "RIIRKIIHII-NH2 [SMAP29X-10]", "values": [
      {"measurement": "EC50 P. aeruginosa PAO1 μg/ml ± sem", "setting": "[5]; ionic strength 25 mM", "value": "0.51 ± 0.00", "unit": "µg/mL"},
      {"measurement": "EC50 P. aeruginosa PAO1 μg/ml ± sem", "setting": "[5]; ionic strength 175 mM", "value": "18.67 ± 0.97", "unit": "µg/mL"}
    ]},
    {"molecule": "NIRRIIRKIIHIIKKY [SMAP29X-16D]", "values": [
      {"measurement": "EC50 P. aeruginosa PAO1", "setting": "[5]; [8]", "value": "0.70 ± 0.36", "unit": "µg/mL"},
      {"measurement": "EC50 P. aeruginosa PAO1", "setting": "[5]; [9]", "value": "3.64 ± 1.75", "unit": "µg/mL"}
    ]},
    {"molecule": "RRIIRKIIHII-NH2 [SMAP29X-11A]", "values": [
      {"measurement": "EC50 P. aeruginosa PAO1 μg/ml ± sem", "setting": "[5]; ionic strength 25 mM", "value": "0.38 ± 0.04", "unit": "µg/mL"},
      {"measurement": "EC50 P. aeruginosa PAO1 μg/ml ± sem", "setting": "[5]; ionic strength 175 mM", "value": "4.92 ± 0.43", "unit": "µg/mL"}
    ]},
    {"molecule": "IRRIIRKIIHIIKK-NH2 [SMAP29X-14C]", "values": [
      {"measurement": "EC50 P. aeruginosa PAO1", "setting": "[5]; [8]", "value": "0.29 ± 0.04", "unit": "µg/mL"},
      {"measurement": "EC50 P. aeruginosa PAO1", "setting": "[5]; [9]", "value": "1.21 ± 0.05", "unit": "µg/mL"}
    ]},
    {"molecule": "RIIRKIIHIIK-NH2 [SMAP29X-11B]", "values": [
      {"measurement": "EC50 P. aeruginosa PAO1 μg/ml ± sem", "setting": "[5]; ionic strength 25 mM", "value": "0.46 ± 0.02", "unit": "µg/mL"},
      {"measurement": "EC50 P. aeruginosa PAO1 μg/ml ± sem", "setting": "[5]; ionic strength 175 mM", "value": "10.42 ± 0.26", "unit": "µg/mL"}
    ]},
    {"molecule": "RRIIRKIIHIIK-NH2 [SMAP29X-12]", "values": [
      {"measurement": "EC50 P. aeruginosa PAO1 μg/ml ± sem", "setting": "[5]; ionic strength 25 mM", "value": "0.31 ± 0.01", "unit": "µg/mL"},
      {"measurement": "EC50 P. aeruginosa PAO1 μg/ml ± sem", "setting": "[5]; ionic strength 175 mM", "value": "3.83 ± 0.22", "unit": "µg/mL"}
    ]},
    {"molecule": "KNLRRIIRKIIHIIKKYG-NH2 [SMAP29X-18A]", "values": [
      {"measurement": "EC50 P. aeruginosa PAO1", "setting": "[5]; [8]", "value": "0.22 ± 0.00", "unit": "µg/mL"},
      {"measurement": "EC50 P. aeruginosa PAO1", "setting": "[5]; [9]", "value": "0.49 ± 0.02", "unit": "µg/mL"}
    ]},
    {"molecule": "KNIRRIIRKIIHIIKKYG [SMAP29X-18C]", "values": [
      {"measurement": "EC50 P. aeruginosa PAO1", "setting": "[5]; [8]", "value": "0.24 ± 0.01", "unit": "µg/mL"},
      {"measurement": "EC50 P. aeruginosa PAO1", "setting": "[5]; [9]", "value": "0.61 ± 0.12", "unit": "µg/mL"}
    ]},
    {"molecule": "RKFRNKIKEKLKKIG [CAP18-15a]", "values": [
      {"measurement": "MIC MRSA [NaCl] High", "setting": "[1]", "value": ">250", "unit": "µg/mL"},
      {"measurement": "MIC MRSA [NaCl] Low", "setting": "[1]", "value": ">250", "unit": "µg/mL"},
      {"measurement": "MIC P. aeruginosa [NaCl] High", "setting": "[2]", "value": 5.3, "unit": "µg/mL"},
      {"measurement": "MIC P. aeruginosa [NaCl] Low", "setting": "[2]", "value": 1.5, "unit": "µg/mL"},
      {"measurement": "EC50 P. aeruginosa PAO1", "setting": "[5]; PAO1", "value": ">20", "unit": "µg/mL"},
      {"measurement": "EC50 P. aeruginosa PAO1", "setting": "[5]; [8]", "value": "1.54 ± 0.43", "unit": "µg/mL"},
      {"measurement": "MIC S. aureus [NaCl] High", "setting": "[4]", "value": ">250", "unit": "µg/mL"},
      {"measurement": "MIC S. aureus [NaCl] Low", "setting": "[4]", "value": 19.5, "unit": "µg/mL"},
      {"measurement": "MIC E. coli [NaCl] High", "setting": "[6]", "value": 0.7, "unit": "µg/mL"},
      {"measurement": "MIC E. coli [NaCl] Low", "setting": "[6]", "value": 0.2, "unit": "µg/mL"},
      {"measurement": "EC50", "setting": "[7]", "value": "240 ± 70", "unit": "nM"},
      {"measurement": "EC50 E. coli DH5α", "setting": "[7]", "value": "0.46 ± 0.12", "unit": "µg/mL"}
    ]},
    {"molecule": "KIKEKLKKIGQKIQG [CAP18-15b]", "values": [
      {"measurement": "MIC MRSA [NaCl] High", "setting": "[1]", "value": ">250", "unit": "µg/mL"},
      {"measurement": "MIC MRSA [NaCl] Low", "setting": "[1]", "value": ">250", "unit": "µg/mL"},
      {"measurement": "MIC P. aeruginosa [NaCl] High", "setting": "[2]", "value": ">250", "unit": "µg/mL"},
      {"measurement": "MIC P. aeruginosa [NaCl] Low", "setting": "[2]", "value": 8.7, "unit": "µg/mL"},
      {"measurement": "EC50 P. aeruginosa PAO1", "setting": "[5]; PAO1", "value": ">80", "unit": "µg/mL"},
      {"measurement": "EC50 P. aeruginosa PAO1", "setting": "[5]; [8]", "value": "10.3 ± 0.3", "unit": "µg/mL"},
      {"measurement": "MIC S. aureus [NaCl] High", "setting": "[4]", "value": ">250", "unit": "µg/mL"},
      {"measurement": "MIC S. aureus [NaCl] Low", "setting": "[4]", "value": ">250", "unit": "µg/mL"},
      {"measurement": "MIC E. coli [NaCl] High", "setting": "[6]", "value": ">250", "unit": "µg/mL"},
      {"measurement": "MIC E. coli [NaCl] Low", "setting": "[6]", "value": 1.6, "unit": "µg/mL"},
      {"measurement": "EC50", "setting": "[7]", "value": "4150 ± 1040", "unit": "nM"},
      {"measurement": "EC50 E. coli DH5α", "setting": "[7]", "value": "7.23 ± 1.81", "unit": "µg/mL"}
    ]},
    {"molecule": "NLRRIIRKIIHIIKKY [SMAP29X-16A]", "values": [
      {"measurement": "EC50 P. aeruginosa PAO1", "setting": "[5]; [8]", "value": "0.90 ± 0.54", "unit": "µg/mL"},
      {"measurement": "EC50 P. aeruginosa PAO1", "setting": "[5]; [9]", "value": "1.78 ± 0.26", "unit": "µg/mL"}
    ]},
    {"molecule": "CC[C@H](C)[C@H](NC(=O)[C@H](CCCNC(=N)N)NC(=O)[C@H](CCCNC(=N)N)NC(=O)[C@@H](NC(=O)[C@@H](N)CC(N)=O)[C@@H](C)CC)C(=O)N[C@H](C(=O)N[C@@H](CCCNC(=N)N)C(=O)N[C@@H](CCCCN)C(=O)N[C@H](C(=O)N[C@H](C(=O)N[C@@H](Cc1c[nH]cn1)C(=O)N[C@H](C(=O)N[C@H](C(=O)N[C@@H](CCCCN)C(=O)N[C@@H](CCCCN)C(=O)N[C@@H](Cc1ccc(O)cc1)C(N)=O)[C@@H](C)CC)[C@@H](C)CC)[C@@H](C)CC)[C@@H](C)CC)[C@@H](C)CC", "note": "[SMAP29X-16C]", "values": [
      {"measurement": "EC50 P. aeruginosa PAO1", "setting": "[5]; [8]", "value": 0.65, "unit": "µg/mL"},
      {"measurement": "EC50 P. aeruginosa PAO1", "setting": "[5]; [9]", "value": 2.21, "unit": "µg/mL"}
    ]}
  ]
}
